# Measured values taken from patent US20240246950A1, “Anilino-Pyrazole Derivatives, Compositions and Methods Thereof” (Ensem Therapeutics, priority 2022, published 2024).
# Experiments:
# Type in all cases: biochemical
# [1] = target: CDK2/CycE1 (Homo sapiens, UniProt P24941); test: In vitro kinase TR-FRET assay CDK2/CycE1; settings: enzyme 0.6 nM, ATP 82 μM, read-out: CDK2 cyclinE1 activity assay: IC50
# Protocol: (§1) In vitro kinase TR-FRET assays: CDK2/CycA2, CDK2/CycE1, CDK1/cyclinB and GSK3β
# (§2) The test compounds were prepared as 10 mM stock solution in 100% DMSO. The stock solution was then serially diluted 3-fold in 100% DMSO to 10 concentrations. 200 nL of each diluted compound solution was transferred to 384-well plate in duplicate. To each well, 5 uL of enzyme and ATP mixture solution containing enzyme CDK2/CycA2, CDK2/CycE1, CDK1/cyclinB, or GSK30 (final concentrations 3 nM, 0.6 nM, 0.3 nM, 0.6 nM, respectively) and ATP (final concentrations 27 μM, 82 μM, 56 μM, 7.6 μM, respectively) in the assay buffer (50 mM HEPES, pH7.5, 10 mM MgCl2, 1 mM DTT, 0.01% BSA, 0.01% Triton X-100). For negative control, 5 uL of assay buffer was added instead. The plate was incubated at room temperature for 10 min. 5 uL of peptide solution containing ULight-4E-BP1 peptide (final concentrations 50 nM) in the assay buffer was subsequently added into each well to initiate the reaction. By incubation at room temperature for 1 hour, 10 uL of 2 nM Eu-anti-phospho-4E BP1 antibody was then added for detection. After one hour incubation at room temperature, all samples were subjected to read the TR-FRET signal on Envision with excitation at 340 nm and emission fluorescence at 615 nm and 665 nm. IC50 values were then calculated by plotting dose-response curves and then using the XLfit application in Excel software.
# [2] = target: GSK3β (Homo sapiens, UniProt P49841); test: In vitro kinase TR-FRET assay GSK3β; settings: enzyme 0.6 nM, ATP 7.6 μM
# Protocol: as §1, §2
# [3] = target: CDK2/CycA2 (Homo sapiens, UniProt P24941); test: In vitro kinase TR-FRET assay CDK2/CycA2; settings: enzyme 3 nM, ATP 27 μM, read-out: CDK2 cyclinA2 activity assay: IC50
# Protocol: as §1, §2
# [4] = target: CDK1/cyclinB (Homo sapiens, UniProt P06493); test: In vitro kinase TR-FRET assay CDK1/cyclinB; settings: enzyme 0.3 nM, ATP 56 μM
# Protocol: as §1, §2
# Sequence of CDK1/cyclinB (P06493 whole entry): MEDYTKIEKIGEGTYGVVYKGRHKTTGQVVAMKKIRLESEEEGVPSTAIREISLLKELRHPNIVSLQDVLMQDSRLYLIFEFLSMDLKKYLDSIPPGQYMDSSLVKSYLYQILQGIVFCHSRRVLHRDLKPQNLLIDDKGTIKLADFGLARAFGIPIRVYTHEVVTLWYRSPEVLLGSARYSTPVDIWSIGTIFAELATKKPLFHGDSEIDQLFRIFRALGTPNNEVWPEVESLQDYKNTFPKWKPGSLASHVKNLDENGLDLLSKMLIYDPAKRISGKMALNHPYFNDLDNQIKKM
# Sequence of CDK1/cyclinB (P14635 whole entry partner): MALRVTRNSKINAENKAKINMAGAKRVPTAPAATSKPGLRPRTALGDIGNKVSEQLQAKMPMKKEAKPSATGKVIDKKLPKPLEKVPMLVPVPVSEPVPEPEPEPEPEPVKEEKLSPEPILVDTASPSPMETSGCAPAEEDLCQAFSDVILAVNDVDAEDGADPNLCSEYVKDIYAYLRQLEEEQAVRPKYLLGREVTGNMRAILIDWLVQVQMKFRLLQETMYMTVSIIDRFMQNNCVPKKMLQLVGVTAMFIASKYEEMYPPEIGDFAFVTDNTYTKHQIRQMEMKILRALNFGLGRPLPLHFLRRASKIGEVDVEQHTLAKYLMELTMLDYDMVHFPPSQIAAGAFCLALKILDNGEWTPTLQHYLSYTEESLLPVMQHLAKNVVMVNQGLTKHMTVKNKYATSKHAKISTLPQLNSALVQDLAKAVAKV
# Sequence of GSK3β (P49841 whole entry, species assumed): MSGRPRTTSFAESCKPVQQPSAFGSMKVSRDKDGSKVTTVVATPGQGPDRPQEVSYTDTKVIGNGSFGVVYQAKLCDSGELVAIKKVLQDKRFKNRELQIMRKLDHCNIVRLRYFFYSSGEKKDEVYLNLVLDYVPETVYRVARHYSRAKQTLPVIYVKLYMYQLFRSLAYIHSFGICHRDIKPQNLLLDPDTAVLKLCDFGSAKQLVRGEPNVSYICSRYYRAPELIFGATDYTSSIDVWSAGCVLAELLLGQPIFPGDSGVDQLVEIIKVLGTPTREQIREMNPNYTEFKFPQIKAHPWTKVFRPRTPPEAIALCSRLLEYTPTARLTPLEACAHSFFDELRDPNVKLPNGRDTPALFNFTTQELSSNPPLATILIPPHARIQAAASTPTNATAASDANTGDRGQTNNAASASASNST
SMILES,IC50 [1] [µM],IC50 [2] [µM],IC50 [3] [µM],IC50 [4] [µM]
"Cc1c([C@@H]2CC[C@H](OC(=O)NC(C)C)C2)n[nH]c1Nc1ccc2c(c1)CCS2(=O)=O (racemic) [Example 24, cis 3-{5-[(1,1-dioxo-2,3-dihydro-1λ6-benzothiophen-5-yl)amino]-4-methyl-1H-pyrazol-3-yl}cyclopentyl (prop-2-ylamino)methanoate]",0.05 to 0.5,> 1,0.5 to 1,> 1
"CC(C)NC(=O)O[C@@H]1CC[C@H](c2cc(Nc3ccc4c(c3)S(=O)(=O)CCC4)n[nH]2)C1 [Example 39, (1R,3S)-3-(3-((1,1-dioxidothiochroman-7-yl)amino)-1H-pyrazol-5-yl)cyclopentyl isopropylcarbamate]",< 0.05,0.05 to 0.5,< 0.05,0.05 to 0.5
"CC(C)NC(=O)O[C@@H]1CC[C@H](c2[nH]nc(Nc3ccc4c(c3)CNS4(=O)=O)c2F)C1 [Example 14, (1R,3S)-3-(3-((1,1-dioxido-2,3-dihydrobenzo[d]isothiazol-5-yl)amino)-4-fluoro-1H-pyrazol-5-yl)cyclopentyl isopropylcarbamate]",< 0.05,> 1,< 0.05,0.05 to 0.5
"CC(C)NC(=O)O[C@@H]1CC[C@H](c2cc(Nc3ccc4c(c3)C(C)(C)NS4(=O)=O)n[nH]2)C1 [Example 13, (1R,3S)-3-(3-((3,3-dimethyl-1,1-dioxido-2,3-dihydrobenzo[d]isothiazol-5-yl)amino)-1H-pyrazol-5-yl)cyclopentyl isopropylcarbamate]",< 0.05,0.05 to 0.5,< 0.05,0.05 to 0.5
"CC(C)NC(=O)O[C@@H]1CC[C@H](c2cc(Nc3ccc4c(c3)N(C)C(=O)NS4(=O)=O)n[nH]2)C1 [Example 18, (1R,3S)-3-(3-((4-methyl-1,1-dioxido-3-oxo-3,4-dihydro-2H-benzo[e][1,2,4]thiadiazin-6-yl)amino)-1H-pyrazol-5-yl)cyclopentyl isopropylcarbamate]",< 0.05,0.05 to 0.5,< 0.05,0.5 to 1
"CC(C)NC(=O)O[C@@H]1CC[C@H](c2cc(Nc3ccc4c(c3)C(=O)NC4)n[nH]2)C1 [Example 20, (1R,3S)-3-{5-[(3-oxo-2,3-dihydro-1H-isoindol-5-yl)amino]-2H-pyrazol-3-yl}cyclopentyl (prop-2-ylamino)methanoate]",< 0.05,> 1,< 0.05,0.5 to 1
"CC(C)NC(=O)O[C@@H]1CC[C@H](c2cc(Nc3cccc4c3S(=O)(=O)CC4)n[nH]2)C1 [Example 35, (1R,3S)-3-{5-[(1,1-dioxo-2,3-dihydro-1λ6-benzo[2,1-b]thiophen-7-yl)amino]-2H-pyrazol-3-yl}cyclopentyl (prop-2-ylamino)methanoate]",> 1,> 1,> 1,> 1

# Further lines, results first:
IC50 [1] [µM],IC50 [2] [µM],IC50 [3] [µM],IC50 [4] [µM],SMILES
0.05 to 0.5,> 1,0.05 to 0.5,> 1,"CC(C)NC(=O)O[C@@H]1CC[C@H](c2cc(Nc3cccc4c3CS(=O)(=O)N4)n[nH]2)C1 [Example 48, (1R,3S)-3-(3-((2,2-dioxido-1,3-dihydrobenzo[c]isothiazol-4-yl)amino)-1H-pyrazol-5-yl)cyclopentyl isopropylcarbamate]"
< 0.05,> 1,< 0.05,> 1,"CC(C)NC(=O)O[C@@H]1CC[C@H](c2cc(Nc3cc4c(cc3F)S(=O)(=O)CC4)n[nH]2)C1 [Example 54, (1R,3S)-3-(3-((6-fluoro-1,1-dioxido-2,3-dihydrobenzo[b]thiophen-5-yl)amino)-1H-pyrazol-5-yl)cyclopentyl isopropylcarbamate]"
0.05 to 0.5,> 1,0.05 to 0.5,> 1,"Cc1c(Nc2ccc3c(c2)CS(=O)(=O)C3)n[nH]c1[C@H]1CC[C@@H](OC(=O)NC(C)(C)C)C1 [Example 44, (1R,3S)-3-{5-[(2,2-dioxo-1,3-dihydro-2%6-benzo[c]thiophen-5-yl)amino]-4-methyl-2H-pyrazol-3-yl}cyclopentyl [(2-methylprop-2-yl)amino]methanoate]"
< 0.05,> 1,< 0.05,0.5 to 1,"CC(C)NC(=O)O[C@@H]1CC[C@H](c2cc(Nc3cccc4c3CCS(=O)(=O)N4)n[nH]2)C1 [Example 53, (1R,3S)-3-(3-((2,2-dioxido-3,4-dihydro-1H-benzo[c][1,2]thiazin-5-yl)amino)-1H-pyrazol-5-yl)cyclopentyl isopropylcarbamate]"
0.05 to 0.5,> 1,0.5 to 1,0.05 to 0.5,"CC(C)NC(=O)O[C@@H]1CC[C@H](c2cc(Nc3cccc4c3N(C)S(=O)(=O)C4)n[nH]2)C1 [Example 51, (1R,3S)-3-{5-[(1-methyl-2,2-dioxo-1,3-dihydro-2λ^6-benzo[2,1-c][1,2]thiazol-7-yl)amino]-2H-pyrazol-3-yl}cyclopentyl (prop-2-ylamino)methanoate]"
< 0.05,> 1,0.05 to 0.5,> 1,"CC(C)NC(=O)O[C@@H]1CC[C@H](c2cc(Nc3c(F)ccc4c3CCS4(=O)=O)n[nH]2)C1 [Example 52, (1R,3S)-3-(3-((5-fluoro-1,1-dioxido-2,3-dihydrobenzo[b]thiophen-4-yl)amino)-1H-pyrazol-5-yl)cyclopentyl isopropylcarbamate]"
0.05 to 0.5,> 1,0.05 to 0.5,> 1,"Cc1c(Nc2ccc3c(c2)CS(=O)(=O)C3)n[nH]c1[C@H]1CC[C@@H](OC(=O)NC(C)C)C1 [Example 43, (1R,3S)-3-{5-[(2,2-dioxo-1,3-dihydro-2λ^6-benzo[c]thiophen-5-yl)amino]-4-methyl-2H-pyrazol-3-yl}cyclopentyl (prop-2-ylamino)methanoate]"
< 0.05,> 1,< 0.05,< 0.05,"CC(C)NC(=O)O[C@@H]1CC[C@H](c2cc(Nc3cc4c(cn3)CCS4(=O)=O)n[nH]2)C1 [Example 72, (1R,3S)-3-{5-[(1,1-dioxo-2,3-dihydro-1λ^6-thieno[3,2-c]pyridin-6-yl)amino]-1H-pyrazol-3-yl}cyclopentyl (prop-2-ylamino)methanoate]"
< 0.05,0.05 to 0.5,< 0.05,0.05 to 0.5,"O=C(NC1CC1)O[C@@H]1CC[C@H](c2cc(Nc3nccc4c3CCS4(=O)=O)n[nH]2)C1 [Example 71, (1R,3S)-3-{5-[(1,1-dioxo-2,3-dihydro-1λ^6-thieno[3,2-c]pyridin-4-yl)amino]-2H-pyrazol-3-yl}cyclopentyl (cyclopropylamino)methanoate]"
